Assay results taken from patent US20240245677A1, “SELECTED COMPOUNDS FOR TARGETED DEGRADATION OF BRD9” (C4 THERAPEUTICS, INC., priority 2021, published 2024).
Where “and” joins values, the source holds several entries; their conditions need not be identical. Identical values can stand only once. Like-named read-outs stand apart in the source and are kept apart here.

What was measured:
[1] = Crystallization from hot saturated solutions by fast cooling; type: physicochemical; conditions: for Comments / XRPD: hot saturated solution
Experimental: Samples with no precipitates were put in −20° C. freezer for crystallization. Precipitates were collected by filtration. The solid part (wet cake) were investigated by XRPD.

[2] = Crystallization by addition of anti-solvent; type: physicochemical; conditions: for Comments: form after seeding: add Pattern G as seeds, slurry for 5 days
Experimental: Based on approximate solubility results, about 20 mg of Compound 1 free form Pattern E was dissolved in the minimal amount of good solvent. Anti-solvent was added into the obtained solutions slowly. Precipitates were collected by centrifuged. The solid part (wet cake) were investigated by XRPD.

bromodomain of BRD9 = target: T1, bromodomain of BRD9 (Homo sapiens, UniProt Q9H8M2); assay: AlphaLISA competition assay, binding to BRD9
T1 construct: made in house; host or cells: E. coli
Experimental: An AlphaLISA® (Perkin Elmer Inc., Dumfries, VA, USA) displacement assay was used to determine the binding affinity of Compound 1 to purified bromodomain of BRD9 protein.
Human histidine-tagged (His-tag) bromodomain of BRD9 was expressed in E. coli and purified, with a concentration of 1.1 mg/mL. The bromodomain of BRD9 was labeled with an AlphaLISA® donor bead (Catalog No. AS101R, Perkin Elmer Inc., Dumfries, VA, USA) attached via a His-tag on the protein. A potent BRD9 ligand was chemically modified to attach a biotin tag. The biotin tag was subsequently used to attach a streptavidin-labeled AlphaLISA® acceptor bead (Catalog No. AL125M, Perkin Elmer Inc., Dumfries, VA, USA).
Determination of the binding constant (Kd) of Compound 1 to the bromodomain of BRD9 was carried out using an AlphaLISA® competition assay, where binding of Compound 1 to BRD9 was measured via loss of signal upon displacement of biotinylated BRD9 ligand tagged with the AlphaLISA® acceptor bead. […]
Response (normalized signal), R, for each well containing the test compounds was calculated using the averaged signal from negative and positive control wells: […]
Compound 1 competed with fluorescence probe for binding to bromodomain of BRD9. […]

T1 sequence (Q9H8M2 136-240 limits assumed): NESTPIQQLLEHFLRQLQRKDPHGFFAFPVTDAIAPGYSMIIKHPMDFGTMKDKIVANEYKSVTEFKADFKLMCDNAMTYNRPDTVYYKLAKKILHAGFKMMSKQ

COc1cc(-c2cn(C)c(=O)c(C)c2C)cc(OC)c1CN1CC[C@H](N2CCN(c3ccc(N[C@H]4CCC(=O)NC4=O)cc3F)CC2)C(F)(F)C1 [Compound 1, (S)-3-((4-(4-((S)-1-(2,6-dimethoxy-4-(1,4,5-trimethyl-6-oxo-1,6-dihydropyridin-3-yl)benzyl)-3,3-difluoropiperidin-4-yl)piperazin-1-yl)-3-fluorophenyl)amino)-piperidine-2,6-dione]
Comments: form after seeding ([1]; 2-MeTHF, add Pattern G as seeds, slurry for 5 days): Pattern G
Comments ([1]; 2-MeTHF): Clear solution
XRPD ([1]; Acetone): Pattern B
XRPD ([1]; Ethanol): Pattern F
XRPD ([1]; Ethyl acetate): Pattern F
Comments ([1]; Methanol): Clear solution
Comments: form after seeding ([2]; 2-MeTHF/110, Heptane/200): for 5 days: Pattern G
Comments: form after seeding ([2]; DCM/200, Heptane/400): Pattern F
Comments: form after seeding ([2]; THF/40, Heptane/160): for 5 days: Pattern G
XRPD ([2]; solvent 1,4-dioxane/200, anti-solvent Heptane/400): Pattern F
Comments ([2]; solvent 2-MeTHF/200, anti-solvent MTBE/200): Oil-like sample
XRPD ([2]; solvent DCM/200, anti-solvent MTBE/400): Pattern F
Kd (bromodomain of BRD9; each occasion in duplicate, read-out: Kd, individual test occasion): 157 nM and 131 nM and 129 nM
Kd (bromodomain of BRD9; n=3, read-out: Kd (geometric mean), binding affinity to BRD9): 139 nM
